Read-outs that look alike come from different tables or passages of the source.
Tests used:
[1] = system: Respiratory syncytial virus (RSV) strain A2; assay: RSV antiviral assay (HEp-2, 96 well); format: cell-based; conditions: Table 3
[2] = system: SARS-CoV-2; assay: SARS-CoV-2 antiviral assay (A549-hACE2, Nano luciferase); format: cell-based; conditions: Table 4
[3] = human respiratory syncytial virus, HEp-2, 96 h, read-out: EC50 RSV HEP2 96, HEp-2 cells, RSV A2, MOI=4, 4 days, 96 well
[4] = Severe acute respiratory syndrome coronavirus 2, 48 h, A549-hACE2 cells, SARS-CoV2-Nano, MOI 0.025, 48 h, read-out: EC50 SARS CoV2
[5] = read-out: EC50 RSV HEP2 96, HEp-2 cells, RSV A2, MOI=4, 4 days, 96 well
[6] = A549-hACE2 cells, SARS-CoV2-Nano, MOI 0.025, 48 h, read-out: EC50 SARS CoV2

SMILES | EC50 [1, 3] | EC50 [2, 4] | EC50 [1, 5] | other results
CC(C)COC(=O)[C@H](C)NP(=O)(OC[C@H]1O[C@@](C#N)(c2ccc3c(N)ncnn23)[C@H](O)[C@@H]1O)Oc1ccc(C(C)(C)C)cc1 (stereo partly drawn) [Example 118, isobutyl ((((2R,3S,4R,5R)-5-(4-aminopyrrolo[2,1-f][1,2,4]triazin-7-yl)-5-cyano-3,4-dihydroxytetrahydrofuran-2-yl)methoxy)(4-(tert-butyl)phenoxy)phosphoryl)-L-alaninate] | 23.5 nM | 329 nM | – | –
CCC(=O)O[C@H]1[C@@H](OC(=O)CC)[C@](C#N)(c2ccc3c(N)ncnn23)O[C@@H]1COP(=O)(N[C@@H](C)C(=O)OC1CCC1)Oc1ccc(C2CC2)cc1 (single isomer, unassigned) [Example 54b] | – | – | 20.9 nM | EC50 [2, 6]: 164 nM
CCC(=O)O[C@H]1[C@@H](OC(=O)CC)[C@](C#N)(c2ccc3c(N)ncnn23)O[C@@H]1COP(=O)(N[C@@H](C)C(=O)OC)Oc1ccc(C(C)(C)C)cc1 (stereo partly drawn) [Example 113, (2R,3R,4R,5R)-2-(4-aminopyrrolo[2,1-f][1,2,4]triazin-7-yl)-5-((((4-(tert-butyl)phenoxy)(((S)-1-methoxy-1-oxopropan-2-yl)amino)phosphoryl)oxy)methyl)-2-cyanotetrahydrofuran-3,4-diyl Dipropionate] | 22.1 nM | 126 nM | – | –
C[C@H](NP(=O)(OC[C@H]1O[C@@](C#N)(c2ccc3c(N)ncnn23)[C@H](O)[C@@H]1O)Oc1ccc(C(C)(C)C)cc1)C(=O)OCC1CCC1 (stereo partly drawn) [Example 59, cyclobutylmethyl (2S)-2-[[[(2R,3S,4R,5R)-5-(4-aminopyrrolo[2,1-f][1,2,4]triazin-7-yl)-5-cyano-3,4-dihydroxy-tetrahydrofuran-2-yl]methoxy-(4-tert-butylphenoxy)phosphoryl]amino]propanoate] | 25.3 nM | 160 nM | – | –
CCC(C)(C)COC(=O)[C@H](C)NP(=O)(OC[C@H]1O[C@@](C#N)(c2ccc3c(N)ncnn23)[C@H](O)[C@@H]1O)Oc1ccc(C(C)(C)C)cc1 (stereo partly drawn) [Example 121, 2,2-dimethylbutyl ((((2R,3S,4R,5R)-5-(4-aminopyrrolo[2,1-f][1,2,4]triazin-7-yl)-5-cyano-3,4-dihydroxytetrahydrofuran-2-yl)methoxy)(4-(tert-butyl)phenoxy)phosphoryl)-L-alaninate] | 23.5 nM | 110 nM | – | –
CCC(=O)O[C@H]1[C@@H](OC(=O)CC)[C@](C#N)(c2ccc3c(N)ncnn23)O[C@@H]1COP(=O)(N[C@@H](C)C(=O)OCC(CC)CC)Oc1cccc2ccccc12 (single isomer, unassigned) [Example 79a] | – | – | 61.2 nM | EC50 [2, 6]: 126 nM
CC(C)C(=O)O[C@H]1[C@@H](OC(=O)C(C)C)[C@](C#N)(c2ccc3c(N)ncnn23)O[C@@H]1COP(=O)(N[C@@H](C)C(=O)OC1CC2(CCC2)C1)Oc1ccc(C(C)(C)C)cc1 (stereo partly drawn) [Example 66, [(2R,3R,4R,5R)-5-(4-aminopyrrolo[2,1-f][1,2,4]triazin-7-yl)-2-[[(4-tert-butylphenoxy)-[[(1S)-1-methyl-2-oxo-2-spiro[3.3]heptan-2-yloxy-ethyl]amino]phosphoryl]oxymethyl]-5-cyano-4-(2-methylpropanoyloxy)tetrahydrofuran-3-yl] 2-methylpropanoate] | 61.9 nM | 207 nM | – | –
C[C@H](NP(=O)(OC[C@H]1O[C@@](C#N)(c2ccc3c(N)ncnn23)[C@H](O)[C@@H]1O)Oc1cccc2ccccc12)C(=O)OC1CCC1 (single isomer, unassigned) [Intermediate P7a-2] | – | – | 65.1 nM | EC50 ([2]; Severe acute respiratory syndrome coronavirus 2, 48 h, read-out: EC50 SARS CoV2, A549-hACE2 cells, SARS-CoV2-Nano, MOI 0.025, 48 h): 275 nM
CCC(CC)COC(=O)[C@H](C)NP(=O)(OC[C@H]1O[C@@](C#N)(c2ccc3c(N)ncnn23)[C@H](OC(=O)C(C)C)[C@@H]1OC(=O)C(C)C)Oc1cccc2ccccc12 (stereo partly drawn) [Example 70, [(2R,3R,4R,5R)-5-(4-aminopyrrolo[2,1-f][1,2,4]triazin-7-yl)-5-cyano-2-[[[[(1S)-2-(2-ethylbutoxy)-1-methyl-2-oxo-ethyl]amino]-(1-naphthyloxy)phosphoryl]oxymethyl]-4-(2-methylpropanoyloxy)tetrahydrofuran-3-yl] 2-methylpropanoate] | 49 nM | 319 nM | – | –
CCC(CC)COC(=O)[C@H](C)NP(=O)(OC[C@H]1O[C@@](C#N)(c2ccc3c(N)ncnn23)[C@H](O)[C@@H]1O)Oc1cccc2ccccc12 (stereo partly drawn) [Intermediate S2, 2-Ethylbutyl ((((2R,3S,4R,5R)-5-(4-aminopyrrolo[2,1-f][1,2,4]triazin-7-yl)-5-cyano-3,4-dihydroxytetrahydrofuran-2-yl)methoxy)(naphthalen-1-yloxy)phosphoryl)-L-alaninate] | 84.8 nM | 207 nM | – | –
CCOC(=O)[C@H](C)NP(=O)(OC[C@H]1O[C@@](C#N)(c2ccc3c(N)ncnn23)[C@H](O)[C@@H]1O)Oc1cccc2ccccc12 (stereo partly drawn) [Intermediate S1, ethyl (2S)-2-[[[(2R,3S,4R,5R)-5-(4-aminopyrrolo[2,1-f][1,2,4]triazin-7-yl)-5-cyano-3,4-dihydroxy-tetrahydrofuran-2-yl]methoxy-(1-naphthyloxy)phosphoryl]amino]propanoate] | 93.3 nM | 714 nM | – | –
CCOC(=O)[C@H](C)NP(=O)(OC[C@H]1O[C@@](C#N)(c2ccc3c(N)ncnn23)[C@H](OC(=O)CC)[C@@H]1OC(=O)CC)Oc1ccc(C(C)(C)C)cc1 (stereo partly drawn) [Example 108, (2R,3R,4R,5R)-2-(4-aminopyrrolo[2,1-f][1,2,4]triazin-7-yl)-5-((((4-(tert-butyl)phenoxy)(((S)-1-ethoxy-1-oxopropan-2-yl)amino)phosphoryl)oxy)methyl)-2-cyanotetrahydrofuran-3,4-diyl Dipropionate] | 27.7 nM | 82.9 nM | – | –
CCC(=O)O[C@H]1[C@@H](OC(=O)CC)[C@](C#N)(c2ccc3c(N)ncnn23)O[C@@H]1COP(=O)(N[C@@H](C)C(=O)OC1CC2(CCC2)C1)Oc1cccc2ccccc12 (single isomer, unassigned) [Example 87a] | – | – | 31.1 nM | EC50 [2, 6]: 60.2 nM
CCC(=O)O[C@H]1[C@@H](OC(=O)CC)[C@](C#N)(c2ccc3c(N)ncnn23)O[C@@H]1COP(=O)(N[C@@H](C)C(=O)OC1CCC1)Oc1ccc(C2CC2)cc1 (single isomer, unassigned) [Example 54a] | 13.1 nM | 102 nM | – | –
CCC(CC)COC(=O)[C@H](C)NP(=O)(OC[C@H]1O[C@@](C#N)(c2ccc3c(N)ncnn23)[C@H](OC(C)=O)[C@@H]1OC(C)=O)Oc1cccc2ccccc12 (single isomer, unassigned) [Example 78a] | – | – | 65.2 nM | EC50 [2, 6]: 117 nM
COC(C)(C)CCOC(=O)[C@H](C)NP(=O)(OC[C@H]1O[C@@](C#N)(c2ccc3c(N)ncnn23)[C@H](O)[C@@H]1O)Oc1ccccc1 (stereo partly drawn) [Example 75, (3-methoxy-3-methyl-butyl) (2S)-2-[[[(2R,3S,4R,5R)-5-(4-aminopyrrolo[2,1-f][1,2,4]triazin-7-yl)-5-cyano-3,4-dihydroxy-tetrahydrofuran-2-yl]methoxy-phenoxy-phosphoryl]amino]propanoate] | 289 nM | – | – | –
CCOC(=O)O[C@H]1[C@@H](OC(=O)OCC)[C@](C#N)(c2ccc3c(N)ncnn23)O[C@@H]1COP(=O)(N[C@@H](C)C(=O)OCC)Oc1ccc(C(C)(C)C)cc1 (stereo partly drawn) [Example 124, ethyl ((((2R,3R,4R,5R)-5-(4-aminopyrrolo[2,1-f][1,2,4]triazin-7-yl)-5-cyano-3,4-bis((ethoxycarbonyl)oxy)tetrahydrofuran-2-yl)methoxy)(4-(tert-butyl)phenoxy)phosphoryl)-L-alaninate] | 67.1 nM | – | – | –
CCC(CC)COC(=O)[C@H](C)NP(=O)(OC[C@H]1O[C@@](C#N)(c2ccc3c(N)ncnn23)[C@H](OC(=O)C(C)C)[C@@H]1OC(=O)C(C)C)Oc1ccc2ccccc2c1 (stereo partly drawn) [Example 69a, [(2R,3R,4R,5R)-5-(4-aminopyrrolo[2,1-f][1,2,4]triazin-7-yl)-5-cyano-2-[[[[(1S)-2-(2-ethylbutoxy)-1-methyl-2-oxo-ethyl]amino]-(2-naphthyloxy)phosphoryl]oxymethyl]-4-(2-methylpropanoyloxy)tetrahydrofuran-3-yl] 2-methylpropanoate] | 22.1 nM | – | – | –
CCCCCCOC(=O)[C@H](Cc1ccccc1)NP(=O)(OC[C@H]1O[C@@](C#N)(c2ccc3c(N)ncnn23)[C@H](O)[C@@H]1O)Oc1ccc(C(C)(C)C)cc1 (stereo partly drawn) [Example 119, hexyl ((((2R,3S,4R,5R)-5-(4-aminopyrrolo[2,1-f][1,2,4]triazin-7-yl)-5-cyano-3,4-dihydroxytetrahydrofuran-2-yl)methoxy)(4-(tert-butyl)phenoxy)phosphoryl)-L-phenylalaninate] | 559 nM | – | – | –
C[C@H](NP(=O)(OC[C@H]1O[C@@](C#N)(c2ccc3c(N)ncnn23)[C@H](O)[C@@H]1O)Oc1cccc2ccccc12)C(=O)OC1CCC1 (single isomer, unassigned) [Intermediate P7a-1] | – | – | 224 nM | –
CCC(CC)COC(=O)[C@H](C)NP(=O)(OC[C@H]1O[C@@](C#N)(c2ccc3c(N)ncnn23)[C@H](OC(=O)C(C)C)[C@@H]1OC(=O)C(C)C)Oc1ccc2ccccc2c1 (stereo partly drawn) [Example 69b, [(2R,3R,4R,5R)-5-(4-aminopyrrolo[2,1-f][1,2,4]triazin-7-yl)-5-cyano-2-[[[[(1S)-2-(2-ethylbutoxy)-1-methyl-2-oxo-ethyl]amino]-(2-naphthyloxy)phosphoryl]oxymethyl]-4-(2-methylpropanoyloxy)tetrahydrofuran-3-yl] 2-methylpropanoate] | – | – | 36.9 nM | –
